Data on 22 compounds can be found in ChEMBL document CHEMBL1154513, “Design and synthesis of 4-aryl-4-oxobutanoic acid amides as calpain inhibitors” (Bioorg Med Chem Lett, 2009).

This assay has as its target T1, Calpain-1 catalytic subunit (Homo sapiens, UniProt P07384).
T1 sequence (P07384 whole entry): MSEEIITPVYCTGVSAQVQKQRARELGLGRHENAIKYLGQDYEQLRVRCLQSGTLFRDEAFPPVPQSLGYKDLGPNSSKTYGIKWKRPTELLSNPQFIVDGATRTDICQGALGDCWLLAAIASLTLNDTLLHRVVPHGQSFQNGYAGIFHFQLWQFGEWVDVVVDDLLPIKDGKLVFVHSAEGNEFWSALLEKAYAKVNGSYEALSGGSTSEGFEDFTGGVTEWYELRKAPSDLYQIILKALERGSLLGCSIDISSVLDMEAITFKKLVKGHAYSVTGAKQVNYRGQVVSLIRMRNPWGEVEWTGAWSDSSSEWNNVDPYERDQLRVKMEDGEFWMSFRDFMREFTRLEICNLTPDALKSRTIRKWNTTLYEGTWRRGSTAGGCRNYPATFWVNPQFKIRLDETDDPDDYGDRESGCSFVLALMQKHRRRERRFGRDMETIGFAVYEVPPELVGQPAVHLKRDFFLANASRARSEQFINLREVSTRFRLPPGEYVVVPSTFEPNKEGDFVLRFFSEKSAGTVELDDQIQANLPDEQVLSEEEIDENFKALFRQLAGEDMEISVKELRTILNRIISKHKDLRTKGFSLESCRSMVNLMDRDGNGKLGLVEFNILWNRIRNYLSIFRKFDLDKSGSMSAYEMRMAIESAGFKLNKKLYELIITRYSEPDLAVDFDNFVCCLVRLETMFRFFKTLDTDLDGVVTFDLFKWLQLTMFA
As to the kind of experiment: Inhibition of human erythrocytes mu-calpain.

What is called IC50 is the concentration that gives 50% inhibition. High values mean weaker potency, low ones greater potency. Consider `O=C(CCC(=O)c1ccccc1O)N[C@@H](Cc1ccccc1)C(=O)C(=O)NCc1ccccc1`, for which it took 13800 nM to reach half-maximal inhibition (IC50).
Then `COc1ccc(C(=O)CCC(=O)N[C@@H](Cc2ccccc2)C(=O)C(N)=O)c(OC)c1`, with 1180 nM; and `O=C(CCC(=O)c1ccc(O)cc1O)N[C@@H](Cc1ccccc1)C(=O)C(=O)NCc1ccccc1`, with 5730 nM; and `COc1ccc(OC)c(C(=O)CCC(=O)N[C@@H](Cc2ccccc2)C(=O)C(=O)NCc2ccccc2)c1`, with 3770 nM.
In turn, `COCOc1ccccc1C(=O)CCC(=O)N[C@@H](Cc1ccccc1)C(=O)C(N)=O` displayed an IC50 of 340 nM.
Then `COCOc1cc(OC)ccc1C(=O)CCC(=O)N[C@@H](Cc1ccccc1)C(=O)C(N)=O`, with 700 nM; and `COc1ccccc1C(=O)CCC(=O)N[C@@H](Cc1ccccc1)C(=O)C(N)=O`, with 540 nM; and `COc1ccc(OC)c(C(=O)CCC(=O)N[C@@H](Cc2ccccc2)C(=O)C(=O)NCCc2ccccc2)c1`, with 2090 nM.
To `COCOc1ccccc1C(=O)CCC(=O)N[C@@H](Cc1ccccc1)C(=O)C(=O)NCc1ccccc1` belongs 4290 nM; to `COc1ccc(CCNC(=O)C(=O)[C@H](Cc2ccccc2)NC(=O)CCC(=O)c2cc(OC)ccc2OC)cc1`, 950 nM; to `COCOc1cc(OC)ccc1C(=O)CCC(=O)N[C@@H](Cc1ccccc1)C(=O)C(=O)NCc1ccccc1`, 4250 nM.
Then `COc1ccc(CNC(=O)C(=O)[C@H](Cc2ccccc2)NC(=O)CCC(=O)c2cc(OC)ccc2OC)cc1`, with 2350 nM; and `COc1ccc(OC)c(C(=O)CCC(=O)N[C@@H](Cc2ccccc2)C(=O)C(=O)NCc2ccc(OC)c(OC)c2)c1`, with 1640 nM; and `COc1ccc(OC)c(CCCC(=O)N[C@@H](Cc2ccccc2)C(=O)C(=O)NCc2ccccc2)c1`, with 8000 nM.
For `COc1ccc(OC)c(CCCC(=O)N[C@@H](Cc2ccccc2)C(=O)C(N)=O)c1`, 1860 nM corresponded to half-maximal inhibition (IC50).
To `O=C(CCC(=O)c1ccccc1)N[C@@H](Cc1ccccc1)C(=O)C(=O)NCc1ccccc1` belongs 6250 nM.
Then `NC(=O)C(=O)[C@H](Cc1ccccc1)NC(=O)CCC(=O)c1ccccc1`, with 3200 nM; and `COc1ccc(OC)c(C(=O)CCC(=O)N[C@@H](Cc2ccccc2)C(=O)C(N)=O)c1`, with 520 nM.
The compound `COc1ccc(OC)c(C(=O)CCC(=O)N[C@@H](Cc2ccccc2)C(=O)C(=O)NCCc2ccc(OC)c(OC)c2)c1` yielded an IC50 of 2130 nM.
The compound `COc1ccc(C(=O)CCC(=O)N[C@@H](Cc2ccccc2)C(=O)C(=O)NCc2ccccc2)c(O)c1` registered an IC50 of 13000 nM.
On to `COc1ccc(C(=O)CCC(=O)N[C@@H](Cc2ccccc2)C(=O)C(=O)NCc2ccccc2)c(OC)c1`, for which the midpoint of inhibition, the IC50, lay at 6160 nM.
To `COc1ccccc1C(=O)CCC(=O)N[C@@H](Cc1ccccc1)C(=O)C(=O)NCc1ccccc1` belongs 3330 nM.
